From US5028733A, “Prostaglandins” (National Research Development Corporation, priority 1980, dated 1991)
Where “and” joins values, the source holds several entries; their conditions need not be identical. Identical values can stand only once.

Experiments:
[1] = tested on: platelet aggregation (11,9-(epoxymethano) PGH2); experiment: In vivo inhibition of platelet aggregation in guinea pigs (11,9-(epoxymethano) PGH2); design: species or system male albino guinea pig
Protocol: The technique employed in this test was basically that of Smith and Freuler, Bibl. anat., 1973, 12, 229-234, which utilises the Technicon Autocounter and provides a completely automated system for counting platelets and cells. Blood is continuously sampled from a suitable artery and to avoid the use of an anticoagulant, a double cannula is used which enables 3.8%, w/v aqueous trisodium citrate to be pumped to the tip of the cannula and the citrated blood then to be removed at 0.1 ml/minute and diluted in the manifold where the red cells are lysed with 1% w/v ammonium oxalate/0.002% w/v saponin solution. The platelets are then counted optically and the count continuously recorded on precalibrated chart paper. In three experiments, each conducted on one male albino guinea pig ([…]) anaesthetised with a mixture of allyl barbituric acid and urethane, the guinea pig was given intravenously a dose of 50 μg/kg of collagen, followed 15 minutes later by 0.35 μg/kg of 11,9-(epoxymethane) PGH2 to give two reliable platelet aggregation responses for each material. […] (In the first experiment, only, the last administration of each compound was omitted).

[2] = tested on: bronchoconstriction (collagen); experiment: Modified Konzett-Rossler test, inhibition of bronchoconstriction by collagen; type: in vivo, guinea pig; details: 5 min after compound; 1 mg/kg i.v.; insufflation pressure
Protocol: (§1) In three experiments, each conducted on one male albino guinea pig ([…]) anaesthetised with a mixture of allyl barbituric acid and urethane, the guinea pig was given intravenously a dose of 50 μg/kg of collagen, followed 15 minutes later by 0.35 μg/kg of 11,9-(epoxymethane) PGH2 to give two reliable platelet aggregation responses for each material. After a further period of 10 minutes, the guinea pig was treated intravenously with a dose of 1 mg/kg of 5-endo-(6'-carboxyhex-2'Z-enyl)-6-exo{1'-[N-(phenylthiocarbamoyl)hydrazono]-ethyl}-bicyclo [2,2,1] heptane prepared as described in Example 2. Commencing 5 minutes after the administration of the bicyclo [2,2,1] heptane, the alternate treatments at 15 minute intervals with collagen and 11,9-(epoxymethano) PGH2 were repeated, the second treatment with the latter compound being followed after 15 minutes by a final treatment with collagen. (In the first experiment, only, the last administration of each compound was omitted).
(§2) The same three experiments on guinea pigs described under 1(b) are used to give a measure in a modified Konzett-Rossler test of the inhibition produced by 5-endo-(6'-carboxyhex-2'Z-enyl)-6-exo{1'[N-(phenylthiocarbamoyl)-hydrazono]ethyl}-bicyclo [2,2,1] heptane, prepared as described in Example 2, of the bronchoconstriction resulting from administration of the collagen and the PGH2 derivative. […]

[3] = tested on: platelet aggregation (collagen); experiment: In vivo inhibition of platelet aggregation in rats (collagen); design: species or system male Sprague-Dawley rats; details: for Percentage Fall in platelet count on administering collagen, After, mean: mean of 6 rats, compound 1 mg/kg i.v.
Protocol: (§3) The technique employed in this test was basically that of Smith and Freuler, Bibl. anat., 1973, 12, 229-234, which utilises the Technicon Autocounter and provides a completely automated system for counting platelets and cells. Blood is continuously sampled from a suitable artery and to avoid the use of an anticoagulant, a double cannula is used which enables 3.8%, w/v aqueous trisodium citrate to be pumped to the tip of the cannula and the citrated blood then to be removed at 0.1 ml/minute and diluted in the manifold where the red cells are lysed with 1% w/v ammonium oxalate/0.002% w/v saponin solution. The platelets are then counted optically and the count continuously recorded on precalibrated chart paper.
Each of a group of six male Sprague-Dawley rats anaesthetised with pentabarbitone was injected intravenously with 40 μg/kg of collagen followed, 15 minutes later, by 80 μg/kg of collagen, which gives a dose-dependent and reproducible fall in platelet count. Ten minutes after the second injection of collagen, the rats were treated intravenously with a dose of 1 mg/kg of 5-endo-(6'-carboxyhex-2'Z-enyl)-6-exo-{1'-[N-(phenylthiocarbamoyl)-hydrazono]ethyl}-bicyclo [2,2,1] heptane prepared as described in Example 2. At 5 and 20 minutes after the administration of this compound a further 40 μg/kg and 80 μg/kg of collagen, respectively, were administered. The levels of platelet aggregation resulting from the administration of the collagen before and after the administration of the bicyclo [2,2,1] heptane were recorded continuously as indicated above.

rabbit aorta [4] = experiment: Rabbit aorta strip, antagonism of contraction by 11,9-(epoxymethano) PGH2 (affinity constant KB); type: cell-based; details: in words
Protocol: Spiral strips of thoracic aorta are suspended in Kreb's-Henseleit solution and aerated with 95% O2 /5% CO2 at 37° C. Tension changes are recorded with a Glass FTO3 force transducer. Initially, cumulative dose response curves to 11,9-(epoxymethano) PGH2 (2×10^-9, 1×10^-8, 5×10^-8 and 2.5×10^-7 M) are obtained. In a second experiment the individual compounds are added 30 minutes previous to the addition of the series of agonist doses. In the case of each compound, the affinity constant, KB, for the compound is calculated according to the Gaddum - Schild Equation (based on Law of Mass Action).
(§4) [B]=molar concentration of compound

rabbit aorta [5] = experiment: Block of the contractile action of noradrenaline in the rabbit aorta strip test; type: cell-based; details: in words
human platelets = target: T1, human platelets (Homo sapiens, UniProt P21731); experiment: Human platelet system, antagonism of aggregation by 11,9-(epoxymethano) PGH2 (affinity constant KB); type: cell-based; details: in words
T1 construct: Platelet-rich plasma is obtained from fresh, citrated human blood; endogenous in cells; host or cells: human platelets in platelet-rich plasma
T1 sequence (P21731 1-343): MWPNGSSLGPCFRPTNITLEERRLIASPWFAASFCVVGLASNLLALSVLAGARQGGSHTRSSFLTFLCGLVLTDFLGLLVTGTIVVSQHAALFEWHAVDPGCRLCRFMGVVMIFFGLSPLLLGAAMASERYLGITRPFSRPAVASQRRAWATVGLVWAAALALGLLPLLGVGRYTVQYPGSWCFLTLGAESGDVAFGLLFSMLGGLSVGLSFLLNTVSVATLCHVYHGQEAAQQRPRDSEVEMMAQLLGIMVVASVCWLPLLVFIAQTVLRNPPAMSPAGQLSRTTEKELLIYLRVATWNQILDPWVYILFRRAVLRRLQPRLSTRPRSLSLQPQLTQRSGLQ
Protocol: Platelet-rich plasma is obtained from fresh, citrated human blood. Addition of the 11,9-(epoxymethano) PGH2 (1×10^-7 to 5×10^-7 M) causes immediate aggregation recorded as an increase in light transmission (600 nm). In a second experiment the individual compounds are added five minutes previous to the addition of the PGH2 analogue. The dose of the PGH2 analogue added is then increased to a level which gives a similar response to that obtained in the absence of antagonist. The affinity constant, KB, for the compound is calculated according to the Gaddum - Schild Equation (based on Law of Mass Action).
as §4

[6] = tested on: bronchoconstriction (PGH2 derivative); experiment: Modified Konzett-Rossler test, inhibition of bronchoconstriction by 11,9-(epoxymethano) PGH2; type: in vivo, guinea pig; details: 5 min after compound; 1 mg/kg i.v.; insufflation pressure
Protocol: as §1, §2

[7] = tested on: platelet aggregation (collagen); experiment: In vivo inhibition of platelet aggregation in guinea pigs (collagen); design: species or system male albino guinea pig
Protocol: as §3, §1

platelet = experiment: Block of the aggregatory action of arachidonic acid on platelets; type: cell-based; details: in words
[8] = PGH2 deriv. 0.35 μg/kg, average of experiments
[9] = collagen 50 μg/kg, average of experiments

Compound: CC(=NNC(=S)Nc1ccccc1)[C@H]1[C@@H]2CC[C@@H](C2)[C@@H]1C/C=C\CCCC(=O)O (relative stereo) [Example 2, 5-endo(6'-Carboxyhex-2'Z-enyl)-6-exo-{1'-[N-(phenylthiocarbamoyl)-hydrazono]-ethyl}-bicyclo [2,2,1] heptane]
- Percentage Inhibition of platelet aggregation, 20 min ([1]; PGH2 deriv. 0.35 μg/kg, 20 min after 1 mg/kg i.v. compound, single animal): 75.7 Percentage and 85.2 Percentage and 83.7 Percentage
- Percentage Inhibition of platelet aggregation, 50 min ([1]; PGH2 deriv. 0.35 μg/kg, 50 min after 1 mg/kg i.v. compound, single animal): 65.5 Percentage and 64.6 Percentage
- Percentage Inhibition of platelet aggregation, 20 min, Average [1, 8]: 81.5 Percentage
- Percentage Inhibition of platelet aggregation, 50 min, Average [1, 8]: 65.1 Percentage
- platelet aggregation produced by 11,9-(epoxymethano) PGH2, in words ([1]; guinea pig, 1 mg/kg i.v.): caused an inhibition of the platelet aggregation
- inhibition of the bronchoconstricting effect of collagen [2]: complete inhibition
- average response to collagen ([3]; 40 μg/kg collagen, before vs after compound 1 mg/kg i.v.): significantly reduced
- P, one tailed paired t-test, reduction of average response ([3]; 40 μg/kg collagen, t=2.25 (5Df)): < 0.05
- Percentage Fall in platelet count on administering collagen, After, individual rat ([3]; collagen 40 μg/kg i.v., 5 min after 1 mg/kg i.v. compound): 14.0 Percentage and 13.3 Percentage and 14.6 Percentage and 25.0 Percentage and 18.5 Percentage and 19.4 Percentage
- Percentage Fall in platelet count on administering collagen, After, mean ([3]; collagen 40 μg/kg): 17.47 Percentage
- Percentage Fall in platelet count on administering collagen, After, individual rat ([3]; collagen 80 μg/kg i.v., 20 min after 1 mg/kg i.v. compound): 18.3 Percentage and 27.1 Percentage and 28.4 Percentage and 34.4 Percentage and 34.5 Percentage and 28.2 Percentage
- Percentage Fall in platelet count on administering collagen, After, mean ([3]; collagen 80 μg/kg): 28.5 Percentage
- antagonist in the rabbit aorta strip test (rabbit aorta [4]): pure antagonists in the rabbit aorta strip test
- contractile action of noradrenaline (α-adrenoceptors) (rabbit aorta [5]): do not block the contractile action of noradrenaline
- antagonist in the platelet test (human platelets): antagonists in the platelet test
- inhibition of the bronchoconstricting effect of the PGH2 derivative [6]: complete inhibition
- Percentage Inhibition of platelet aggregation, 5 min ([7]; collagen 50 μg/kg, 5 min after 1 mg/kg i.v. compound, single animal): 73.6 Percentage and 64.5 Percentage and 68.3 Percentage
- Percentage Inhibition of platelet aggregation, 35 min ([7]; collagen 50 μg/kg, 35 min after 1 mg/kg i.v. compound, single animal): 67.3 Percentage and 64.4 Percentage and 56.1 Percentage
- Percentage Inhibition of platelet aggregation, 65 min ([7]; collagen 50 μg/kg, 65 min after 1 mg/kg i.v. compound, single animal): 56.1 Percentage and 51.5 Percentage
- Percentage Inhibition of platelet aggregation, 5 min, Average [7, 9]: 68.8 Percentage
- Percentage Inhibition of platelet aggregation, 35 min, Average [7, 9]: 62.6 Percentage
- Percentage Inhibition of platelet aggregation, 65 min, Average [7, 9]: 53.8 Percentage
- platelet aggregation produced by collagen, in words ([7]; guinea pig, 1 mg/kg i.v.): caused an inhibition of the platelet aggregation
- aggregatory action of arachidonic acid (platelet): block the aggregatory action of arachidonic acid
